In experiment [1] the test system is DRGs. As to the kind of experiment: G-protein/GPCR inhibitors in NGF withdrawal-induced degeneration in DRGs. The experiment is classed as cell-based. Here is the method:
The assays described herein identified several inhibitors of G-proteins and G-protein coupled receptors (GPCRs) that decrease degeneration in neurons. Experiments were performed in DRGs to verify the role of G-proteins and GPCRs in degeneration pathways. The experimental protocols used in these experiments are the same as those described in Example 14. Pertussis toxin and SCH 202676 were purchased from Tocris Bioscience.

For experiment [2], the system named is DRGs. In words: Campenot chamber local axon degeneration, anti-NGF in axon compartment. Format: cell-based, mouse. Conditions: for formation of varicosities in locally NGF-deprived axons: axon inhibitors added to axon compartment: 10 μM AG555, 30 μM SB239; for Axon Compartment (axon protected when inhibitor is in axon compartment) / Cell Body Compartment (axon protected when inhibitor is in cell body compartment): anti-NGF in axon compartment, 28 hours. The method, then:
Teflon dividers (Tyler Research) were cleaned by washing in water and wiping them clean of any residual grease. Dividers were then soaked in Nochromix (Godax Laboratories)/sulfuric acid overnight, rinsed five times in distilled and autoclaved water (SQ water), boiled for 30 minutes, and then air-dried before use.
Mouse laminin (5 μg/ml in sterile filtered water; Invitrogen) was added to PDL coated 35 mm dishes (BD Biosciences) and they were incubated for 1 hour at 37° C., followed by two rinses in SQ water. The dishes were vacuum-dried and then air-dried in a laminar flow hood for 15 minutes. Prepared dishes were then scored with a pin rake (Tyler Research). […] High vacuum grease (VWR) was added to each Teflon divider under a dissection scope. The laminin coated PDL dishes were inverted and dropped onto the Teflon divider, with additional pressure added by use of a toothpick in the non-track-containing regions. Dishes were incubated for 1 hour at 37° C. Five hundred microliters of NBM+MC (50 ng/ml NGF) solution was added to each of the side compartments, and a grease barrier was added in front of the center cell slot.
Free E13.5 spinal cords were dissected from mouse embryos and placed into NBM+MC (25 ng/ml NGF) solution. DRGs were detached from the spinal cord with a tungsten needle. An NBM+MC-lubricated P200 pipette was used to move DRGs into a 1.5 ml tube. DRGs were pelleted with a tabletop centrifuge for 30 seconds. The supernate was discarded and 0.05% Trypsin/EDTA (cold) was added. The pellet was resolubilized with a pipette and incubated at 37° C. for 15 minutes with constant agitation (650 RPM). The sample was again centrifuged and the supernate discarded. The pellet was resuspended in warm NBM+MC (50 ng/ml NGF) solution and triturated with a flamed glass pipette 20 times, followed by trituration with a fire-bored glass pipette another 20 times. The samples were again centrifuged and the resulting pellets were resuspended in 0.5 ml NBM+MC (50 ng/ml NGF) solution. The cells were diluted to a final concentration of 2.5×10^6 cells/ml. The cell suspensions were loaded into a 1 ml syringe with a 22 gauge needle. The center slot of the Campenot divider was filled using the syringe (to a volume of at least 50 μl). The Campenot chamber was incubated overnight at 37° C. 2.5 ml NGF+MC (50 ng/ml NGF) solution was added to the center compartment and the grease gate was removed. The outer medium (cell body compartment) was replaced after three days with 2.5 ml NBM+MC medium (with 25 ng/ml NGF). After five days in culture, one distal compartment was washed three times with warmed NBM+MC (no NGF) solution. After the third wash, 500 μl NBM+MC (no NGF) solution was added to the axon compartment in combination with either 0.5% DMSO or an inhibitor. The cell body compartment was replaced with 2.5 ml NBM+MC medium (with 25 ng/ml NGF) containing either 0.5% DMSO or inhibitor.
After 28 hours of anti-NGF antibody treatment, 8% PFA/30% sucrose solution (see above) was added directly to the culture medium at a 1:1 dilution and incubated for 30 minutes. The Teflon divider was removed after the first 15 minutes of addition. The system was washed once with 2.5 ml PBS prior to immunostaining. Neurons were blocked in 5% BSA/0.2% triton in PBS for 30 minutes. The primary antibody Tuj1 (Covance) was added to a final dilution of 1:1000 in PBS containing 2% BSA and incubated overnight at 4° C. The dish was washed once with PBS. […] The dish was washed twice with PBS, and a 22×22 mm coverslip (VWR) was added with 350 μl of fluoromount G (Electron Microscopy Sciences). The neurons were visualized by use of a fluorescence microscope.
As described above, E13.5 DRGs were isolated and grown for 5 days in a Campenot chamber.

Experiment [3] relates to cerebellar granule neurons (CGNs). As to the kind of experiment: serum deprivation/KCl reduction-induced degeneration. Format: cell-based, mouse. Conditions: 5 mM KCl, 24 hours. The method, then:
Kinase inhibitors (inhibitors of GSK3, JNK, EGFR, p38, and CaMKK) were tested for their capacity to protect cultured cerebellar granule neurons (CGNs) following serum deprivation/KCl reduction. Briefly, CGNs isolated from P7 mouse brain were cultured on PDL- and laminin-coated 96-well tissue culture dishes in medium containing serum and potassium (Basal Medium Eagles including 29 mM KCl and 10% FBS) at 37° C. After 24 hours in culture, cells were switched to “deprivation” medium (Basal Medium Eagles including 5 mM KCl), alone or in combination with various small molecule inhibitors as shown in Table 8. After a further 24 hours in culture, the neurons were fixed with 4% paraformaldehyde and stained with a neuronal marker (anti-class III β-Tubulin, Covance). Image acquisition was performed using the ImageXpress automated imaging system (Molecular Devices).

Experiment [4] concerns dorsal spinal cord explants. In words: dorsal spinal cord (DSC) explant degeneration. The experiment is classed as cell-based. Conditions: 3.4 μM, 11.1 μM, 33.3 μM and 100 μM (FIG. 37).
Source text: DSCs grow out axons over a period of days, but if they are not rescued with the addition of a survival factor, they will eventually degenerate.
Experiment [5] deals with dorsal root ganglion neurons. In words: EGFR ligand added to neurons maintained in NGF: axon degeneration. The experiment is classed as cell-based, mouse. Conditions: 100 μg/mL EGF. Here is the method:
(§1) Dorsal Root Ganglia (DRG) immunoblots were prepared as follows. Primary cells used in the experiments were Charles River CD-1 E13 Dorsal Root Ganglia (DRG). The cells were maintained in N3/F12 (+25 ng/ml NGF) medium (Ham's F12 (23 ml), N3 supplement (1 ml), glucose (1 ml of 1 M glucose stock), 25 ng/ml Nerve Growth Factor 2.5 S, mouse (Roche 11362348001) in Ham's F12 (stock: 50 μg/ml −80° C.), which was filter-sterilized prior to use). The experiments also employed Triton lysis buffer (20 mM Tris pH 7.5, 150 mM NaCl, 0.1% Triton-X100, 100× Phosphatase inhibitor cocktail I (added fresh), 100× Phosphatase inhibitor cocktail II (added fresh), 1 tablet/10 ml Protease inhibitor tablet (added fresh)).
DRG explants were prepared on Day 0. Embryo dissections were carried out in L15 medium (dissection tools were soaked in 70% isopropanol, and dishes were set up on ice: 10 cm dishes (4 embryos per dish) and one 6 cm dish for spinal cords). E13.5 spinal cords were extracted into DMEM+10% FBS. 5×20 DRGs were detached from the spinal cord. 8 well slides were filled with 250 μl N3/F12 (25 ng/ml NGF)+7 μM cytosine arabinoside. […]
The goal of these experiments was to see if activation of EGFR by EGF would be sufficient to drive degeneration. […] To ensure that EGF is capable of activating EGFR/ErbBs in the neuronal cultures used in these assays, ERK activation was assessed (ERK is a downstream target of EGFR).

A further experiment has as its system ERK. In words: ERK activation by EGFR ligand, Western blot. Format: cell-based, mouse. The following applies: 100 μg/mL EGF, 30 minutes to 1 hour. Here is the method: as §1
DRG explants were prepared on Day 0. Embryo dissections were carried out in L15 medium (dissection tools were soaked in 70% isopropanol, and dishes were set up on ice: 10 cm dishes (4 embryos per dish) and one 6 cm dish for spinal cords). E13.5 spinal cords were extracted into DMEM+10% FBS. […]
Immunoblotting was carried out by aspiration of media with a pipette tip, washing twice with ice-cold sterile PBS, and removal of all PBS using an aspirator with a pipette tip or kimwipes. […] Quantification was carried out by choosing a background method and standard bands that minimize negative/counter-intuitive values: i.e., top/bottom, right/left, user-defined (user-defined). […]
On the technique in general: Immunoblotting shows a protein as a band on a membrane.

[6] abbreviates: inhibitor 30 μM, listed as SB239.
Setting [7] is: inhibitor 30 μM, listed as SB239063.

Entries after “also recorded” stand apart in the source; their conditions may differ.

For Pertussis toxin, the “degeneration in neurons following NGF withdrawal” value in the experiment with DRGs [1] (0.01 μg/mL, 0.1 μg/mL or 1 μg/mL (FIG. 51)) was “decreases degeneration in neurons following NGF withdrawal”.
On to `COc1nccc(-c2c(-c3ccc(F)cc3)ncn2C2CCC(O)CC2)n1` (stereo not shown) [SB 239063], for which the “formation of varicosities in locally NGF-deprived axons” value with DRGs [2] was “fewer varicosities”. Also, the “Axon Compartment (axon protected when inhibitor is in axon compartment)” value with DRGs [2] (inhibitor 5 μM) is on record as “Yes (1)”; in the experiment on DRGs [2] (setting [6]) it was “did not degenerate; also recorded: protected from local degeneration”; in the experiment on DRGs [2] (setting [7]), “Yes (3)”. The entries for the “Cell Body Compartment (axon protected when inhibitor is in cell body compartment)” value in the experiment on DRGs [2] (inhibitor 5 μM), with DRGs [2] (setting [6]) and in the experiment on DRGs [2] (setting [7]) were “No (1)”, “failed to prevent degeneration” and “No (3)”, respectively. Further, in experiment [3] (inhibitor 5 μM), the “protection of cerebellar granule neurons from serum deprivation/KCl reduction” value is listed as “protect cerebellar granule neurons from serum deprivation/KCl reduction”.
Take `C#Cc1cccc(Nc2ncnc3cc(OCCOC)c(OCCOC)cc23)c1` [Tarceva, N-(3-ethynylphenyl)-6,7-bis(2-methoxyethoxy)quinazolin-4-amine]: in experiment [4], the “degeneration in dorsal spinal cord explants” value is given as “delay this degeneration program; also recorded: blocks degeneration in dorsal spinal cord explants”.
As to “EGF: ErbB ligand (ErbB1) that activates EGFR (NSDSECPLSHDGYCLHDGVCMYIEALDKYACNCVVGYIGERCQYRDLKWWELR; Epidermal growth factor; UniProt P01133 971-1023, looked up)”, the “induction of axon degeneration in neurons maintained in NGF” value in experiment [5] was “does not cause degeneration; also recorded: does not induce axon degeneration”. The “phosphorylation of ERK (ERK activity by Western blot)” value in the experiment with ERK is on record as “increased ERK activity; also recorded: induces phosphorylation of ERK”.
Take `C=C/C=C(\C=C)CCCNC(=O)/C(C#N)=C/c1ccc(O)c(O)c1` [AG 555]: the “formation of varicosities in locally NGF-deprived axons” value in the experiment on DRGs [2] is listed as “fewer varicosities”. Moreover, in the experiment with DRGs [2] (inhibitor 10 μM), the “Axon Compartment (axon protected when inhibitor is in axon compartment)” value is recorded as “did not degenerate; also recorded: protected from local degeneration; also recorded: Yes (4)” and the “Cell Body Compartment (axon protected when inhibitor is in cell body compartment)” value is listed as “failed to prevent degeneration; also recorded: No (4)”. Besides, the “protection of cerebellar granule neurons from serum deprivation/KCl reduction” value in experiment [3] (inhibitor 1 μM or 10 μM) is reported as “protect cerebellar granule neurons from serum deprivation/KCl reduction”.
Turning to `O=C1c2ccccc2-c2n[nH]c3cccc1c23` [SP600125], in the experiment on DRGs [2] (inhibitor 5 μM), the “Axon Compartment (axon protected when inhibitor is in axon compartment)” value is “Yes (1)” and the “Cell Body Compartment (axon protected when inhibitor is in cell body compartment)” value is on record as “Yes (1)”. Further, in the experiment with DRGs [2] (inhibitor 10 μM), the “Axon Compartment (axon protected when inhibitor is in axon compartment)” value was “Yes (1)” and the “Cell Body Compartment (axon protected when inhibitor is in cell body compartment)” value is reported as “Yes (1)”. For the same molecule, the “protection of cerebellar granule neurons from serum deprivation/KCl reduction” value in experiment [3] (inhibitor 5 μM) is on record as “protect cerebellar granule neurons from serum deprivation/KCl reduction”.
Take `CN=c1nc(-c2ccccc2)n(-c2ccccc2)s1` [SCH 202676]: the “NGF withdrawal-induced degeneration in DRGs” value with DRGs [1] (0.1 μM, 1 μM, 10 μM or 100 μM (FIGS. 49 and 50)) is on record as “decreases NGF withdrawal-induced degeneration in DRGs”.
